From patent publication US20230097992A1, “BIVALENT EGF FUSION TOXINS” (The Regents of the University of Colorado, a body corporate, priority 2020, published 2023)

Tests used:
[1] = system: human EGFR-positive HNSCC cell line UMSCC22B; assay: CellTiter-Glo Luminescent Cell Viability Assay, UMSCC22B; format: cell-based; conditions: read-out: IC50 to HNSCC cell lines (Erlotinib)
Experimental: FIG. 9 presents the data from in vitro efficacy analysis of the human EGF fusion toxins against human EGFR-positive HNSCC cell lines using CellTiter-Glo® Luminescent Cell Viability Assay (Promega) Y-axis: inhibition rate of the cell viability by determining the number of viable cells based on the quantification of the ATP present. X-axis: plated fusion toxin concentration. Cycloheximide (1.25 mg/mL) was used as a positive control. The negative control contained cells without fusion toxin. Data were from three individual experiments for each HNSCC cell line. Error bars indicate SD.
Y-axis: inhibition rate of the cell viability by determining the number of viable cells based on the quantification of the ATP present. […] Cycloheximide (1.25 mg/mL) was used as a positive control. […]
In vitro efficacy analysis of the human EGF fusion toxins (mEGF-IT and bEGF-IT) to the human HNSCC tumor cell lines was performed using CellTiter-Glo® Luminescent Cell Viability Assay (Promega Corporation, Madison, Wis.) as described previously (Zheng et al. (2017), Mol. Oncol. 11, 584-594, which is hereby incorporated by reference in its entirety). This cell viability assay measures the luminescence produced because of ATP production from metabolically active cells. […] The luminescence signals were recorded using BioTek Synergy LX Multi-Mode Reader.
IC50 was determined using nonlinear regression (curve fit) of Prism. […]

[2] = system: HNSCC Cal27 subcutaneous xenografts; assay: Flank-xenograft solid tumor-bearing NSG mouse model; format: in vivo, NSG mice; conditions: for Median survival time: Subcutaneous xenograft model, fusion toxin or DT390 50 μg/kg IP, erlotinib 20 mg/kg gavage, once daily for 10 days from day 4
Description: FIGS. 6A-6D presents the data from in vivo efficacy analysis of the human EGF fusion toxins against subcutaneous xenografts in NSG mice from two animal studies. FIG. 6A depicts the survival curve for NSG mice injected with Cal27 cells. […] FIGS. 6B-D depict tumor volume and weight data from the second study performed with a second cohort of NSG mice. […] Mice were euthanized on day 14 after tumor cell injection, when the first mouse in the DT390 group reached the end point. FIG. 6B: Tumor volumes were measured periodically, and the growth kinetics of the four groups were plotted. FIG. 6B depicts the tumor growth kinetics for a period of 14 days. FIG. 6C presents a bar graph representing the tumor weights at day 14. FIG. 6D depicts images of harvested tumors on day 14. Scale bar: 1 cm. FIGS. 6A-6C: *P<0.05; **P<0.01; ***P<0.001; ****P<0.0001; ns: not significant. The P-values for the survival curves in FIG. 6A were calculated using the Mantel-Cox log-rank test and that for the comparisons in FIGS. 6B and C were calculated using the two-tailed Student t-test (GraphPad Prism 9.0.0).
HNSCC tumor cells were injected via the following routes: 1) Flank-xenograft solid tumor model: eight million human HNSCC Cal27 tumor cells were subcutaneously injected into the right flank at day 0. The tumor-bearing mice were randomly divided into the four experimental groups when the tumors were palpable at day 3. The tumor volume was measured using digital vernier calipers every 3 days and calculated according to the formula: volume (mm^3)=(length×width×width)/2. 2) Tongue-orthotopic solid tumor model: eight million human HNSCC Cal27 tumor cells in 50 μl DMEM were injected into the tongue at day 0 following isoflurane anesthesia and the tumor-bearing mice were randomly divided into the planned four experimental groups at day 3. 3) Experimental metastasis model: one million human HNSCC Cal27 tumor cells in 200 μl DMEM were intravenously injected at day 0 via tail vein and the tumor-bearing mice were randomly divided into the four experimental groups at day 3.
Mono-EGF-IT (mEGF-IT), bEGF-IT, or DT390 was intraperitoneally injected (IP) starting at day 4 at 50 μg/kg, once daily for 10 consecutive days. […] The injected animals were observed daily for signs and symptoms of illness and scored at least twice weekly based on the parameters as previously reported (Peraino et al. (2013), J. Immunol. Methods 398-399, 33-43, which is hereby incorporated by reference in its entirety; Wang et al., 2015). The animals were humanely euthanized when the score exceeded the limit or the animal lost more than 15% of its pre-injection body weight. In addition, to assess whether the fusion toxins are toxic to the animals, NSG mice injected with the fusion toxins only were also included as control.
In vivo efficacy of the mEGF-IT and bEGF-IT against HNSCC was assessed using three immunodeficient tumor-bearing NSG mouse models. The first in vivo efficacy model was a flank-xenograft solid tumor-bearing NSG mouse model. Eight million Cal27 tumor cells were injected subcutaneously (SQ) into the right flank at day 0. The EGF fusion toxins were injected intraperitoneally (IP) starting on day 4 at 50 μg/kg daily for 10 consecutive days. […] The reduction of the tumor volumes, weights and sizes (FIGS. 6B-6D) were all consistent with the median survival prolongation.

[3] = system: EGFR+ HNSCC cell line, Cal27; assay: Blocking of anti-human EGFR mAb binding to Cal27 by nonbiotinylated fusion toxin (flow cytometry); conditions: nonbiotinylated fusion toxin as competitor
Description: FIGS. 3C-D present representative data from analysis of the blocking of anti-human EGFR mAb binding to human EGFR-expressing (EGFR^+) HNSCC Cal27 by mEGF-IT and bEGF-IT using flow cytometry. FIG. 3C presents representative flow cytometry data, and FIG. 3D presents the percentage inhibition of anti-human EGFR mAb binding to Cal27 cells plotted versus the concentration of binding competitor (mono-EGF-IT or bi-EGF-IT). The data are representative of three individual experiments.
The biotinylated EGF fusion toxins also dose-dependently bound to all other examined HNSCC cell lines (FIG. 3, 11, and Table 4). […] One limitation to the flow cytometry binding assay is that the extent of biotinylation should be similar between the constructs. Otherwise, it could be hard to attribute the differences in fluorescence intensities to a change in affinity. To overcome this limitation, a blocking assay using nonbiotinylated mono-EGF-IT or bi-EGF-IT to block the binding of the anti-human EGFR mAb to the EGFR+ HNSCC cell line, Cal27, was performed (Wang et al, 2007, Bioconjug Chem 18: 944-955). […] The 14 examined HNSCC cell lines represent the main HNSCC cell lines used in the research community of the head and neck cancers.

Molecule	IC50 [1]	Median survival time [2]	blocking of anti-human EGFR mAb binding to Cal27 (result in words) [3]	Median survival time ([2]; listed as bEGF-IT)	decrease of tumor sizes and weights ([2]; flank xenograft, second cohort, day 14)
C#Cc1cccc(Nc2ncnc3cc(OCCOC)c(OCCOC)cc23)c1 [Erlotinib]	1740 nM	>60 days			
Bi-EGF IT: DT390 joined by G4S to two human EGF domains linked by (G4S)3, C-terminal 6×His tag; SEQ ID NO: 10		>60 days	bound significantly stronger to Cal27 cells compared with mono-EGF-IT	61 days	about 80%
